“Also recorded” adds a separate entry of the source.
What was measured:
[1] = target: T1, human adenosine receptor A1 (Homo sapiens, UniProt P30542); conditions: recombinant human receptor; cited from earlier work
T1 sequence (P30542 1-326): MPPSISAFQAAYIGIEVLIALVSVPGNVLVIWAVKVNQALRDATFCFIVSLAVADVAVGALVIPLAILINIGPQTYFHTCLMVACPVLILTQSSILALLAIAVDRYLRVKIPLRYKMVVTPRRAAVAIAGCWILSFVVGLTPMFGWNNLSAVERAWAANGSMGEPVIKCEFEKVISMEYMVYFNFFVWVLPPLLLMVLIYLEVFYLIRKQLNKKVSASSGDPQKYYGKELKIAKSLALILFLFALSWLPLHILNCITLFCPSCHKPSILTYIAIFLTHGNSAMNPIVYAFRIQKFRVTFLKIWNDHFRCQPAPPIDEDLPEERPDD

[2] = target: T2, human adenosine receptor A3 (Homo sapiens, UniProt P0DMS8); conditions: recombinant human receptor; cited from earlier work
T2 sequence (P0DMS8 1-318): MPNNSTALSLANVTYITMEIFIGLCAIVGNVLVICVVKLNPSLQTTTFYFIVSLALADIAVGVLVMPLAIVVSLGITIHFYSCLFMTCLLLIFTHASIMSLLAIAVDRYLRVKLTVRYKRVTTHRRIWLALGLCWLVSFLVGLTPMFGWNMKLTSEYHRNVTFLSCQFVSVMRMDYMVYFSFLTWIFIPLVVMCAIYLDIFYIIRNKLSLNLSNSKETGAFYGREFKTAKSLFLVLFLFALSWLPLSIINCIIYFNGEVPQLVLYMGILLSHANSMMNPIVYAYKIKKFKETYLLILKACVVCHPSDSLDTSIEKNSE

[3] = target: human adenosine receptor A2A (Homo sapiens, UniProt P29274); conditions: recombinant human receptor; cited from earlier work
[4] = target: T3, human adenosine receptor A2B (Homo sapiens, UniProt P29275); conditions: recombinant human receptor; cited from earlier work
T3 sequence (P29275 1-332): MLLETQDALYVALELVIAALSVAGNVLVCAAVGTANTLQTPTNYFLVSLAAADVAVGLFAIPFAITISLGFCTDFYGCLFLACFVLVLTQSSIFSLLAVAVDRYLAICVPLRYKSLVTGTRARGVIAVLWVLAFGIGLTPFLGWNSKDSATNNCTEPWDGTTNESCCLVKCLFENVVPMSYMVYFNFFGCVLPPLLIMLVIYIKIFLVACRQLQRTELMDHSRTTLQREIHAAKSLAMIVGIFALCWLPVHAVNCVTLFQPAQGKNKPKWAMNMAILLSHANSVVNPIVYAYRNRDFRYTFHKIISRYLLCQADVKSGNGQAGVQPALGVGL

[5] = tested on: rat cerebellar granule neurons (CGNs); test: Tat-induced apoptosis of cerebellar granule neurons (TUNEL); type: cell-based; conditions: Tat 500 nM, 48 h
Experimental: (§1) CGNs were exposed to HIV-1 Tat (Tat, 500 nM), or vehicle alone (NT), in the presence or absence of the A2A antagonist, ZM241385. After 48 h, cultures were analyzed for the percentage of apoptotic cells using the TUNEL assay. Data represent mean±SEM for one experiment that was performed in triplicate; data are representative of two independent experiments.
as §1, with “(No Tat),” for “(NT),”, “A2AR antagonists, ATL455 and ZM241385, or the A2AR agonists ATL313 and CGS21680.” for “A2A antagonist, ZM241385.”
(1) Primary rat cerebellar granule neurons (CGNs). CGNs represent a highly homogenous population of primary neurons which are susceptible to Tat and PAF-mediated cell killing and have been used in many of previous studies. CGN cells are isolated according to published procedures [Maggirwar, S. B., et al. 1999. J Neurochem 73:578-86] [Tong, N., et al. 2001. Eur J Neurosci 13:1913-22].
78(4): p. […] 22(6): p. 1102-6].
Primary rat cerebellar granule neurons (CGNs) were exposed to a neurotoxic concentration of HIV-1 Tat, in the presence or absence of an A2AR antagonist (ZM241385). […] It is important to note that CGNs express adenosine A2A receptors [Vacas, J., et al. 2003. Brain Res 992:272-280].
Primary cultures of rat cerebellar granule neurons (CGNs) were exposed to HIV-Tat ([…]) alone or together with increasing doses of the A2AR antagonist ATL-455 or A2A agonists ATL313 or CGS21680. Cells are treated with the test compounds for defined time intervals of up to 48 hours (1, 4, 8, 24, and 48 hours).

[6] = tested on: Tat-stimulated TNF release in monocytes; test: Tat-stimulated TNF release by primary monocytes (ELISA); type: cell-based, human; conditions: 4 h
Experimental: Human primary monocytes were treated with Tat (100 nM) in the presence or absence of the A2AR agonist, CGS21680 (CGS; 1 μM) or the A2AR antagonist, ZM241385 (100 nM) for 4 h. TNF levels in culture supernatants were then quantitated by ELISA. Data represent mean+SEM of three replicates, from a single representative experiment
Primary monocytes were seeded in separate triplicate wells, and exposed independently to LPS (100 ng/ml), vehicle (NT) or Tat (100 nM) in the presence or absence of the A2AR agonist, CGS21680 (1 μM). After 4 h, cells were harvested. (A) TNF was measured in cell supernatants by ELISA Mean data values (±S.D.) are shown for the triplicate wells. (B) The corresponding cells from each well in panel A were lysed and subjected to qRTPCR analysis. Each cDNA sample was analyzed in quadruplicate. Assay results are presented as fold induction of gene expression, compared to untreated cells, after normalization to levels of GAPDH. Data represent mean±SD for each individual experimental replicate/well.
Human primary monocytes were treated with Tat (100 nM) in the presence or absence of the A2AR agonist, ATL313 (1-4 nM) or the A2AR antagonist, ATL455 (1-4 nM) for 4 h. TNF levels in culture supernatants were then quantitated by ELISA. […]
Human primary monocytes were treated with Tat (100 nM) in the presence or absence of the A2AR agonist, ATL313 (at the indicated doses) for 4 h. TNF levels in culture supernatants were then quantitated by ELISA. […]
(6) Primary monocytes. […] Results are compared for both populations, as well as purity (as assessed by immunophenotyping using CD14, CD68 and MHC class II).
The effect of an A2AR agonist on TNF release by primary human monocytes was also determined. Monocytes were stimulated with HIV-1 Tat, in the presence or absence of the A2AR agonist CGS21680 or the A2AR antagonist ZM251385 and TNF release was then measured in cell culture supernatants using an ELISA assay.
Quantitative real-time PCR analysis was used to measure TNF message levels in Tat-treated monocytes. […]

Sequence of human adenosine receptor A2A (P29274 whole entry): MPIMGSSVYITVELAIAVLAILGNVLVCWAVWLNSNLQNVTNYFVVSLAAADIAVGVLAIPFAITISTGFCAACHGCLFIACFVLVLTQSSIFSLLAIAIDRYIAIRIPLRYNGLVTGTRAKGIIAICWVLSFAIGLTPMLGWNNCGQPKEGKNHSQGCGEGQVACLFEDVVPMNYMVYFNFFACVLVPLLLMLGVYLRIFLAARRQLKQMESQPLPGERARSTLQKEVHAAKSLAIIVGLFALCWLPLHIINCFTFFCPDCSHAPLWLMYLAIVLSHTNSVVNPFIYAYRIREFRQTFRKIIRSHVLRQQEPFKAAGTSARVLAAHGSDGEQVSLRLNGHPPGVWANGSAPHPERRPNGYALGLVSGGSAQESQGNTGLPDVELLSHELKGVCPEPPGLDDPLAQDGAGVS

For `COC(=O)N1CCC(CC#Cc2nc(N)c3ncn(C4OC(C(=O)NC5CC5)C(O)C4O)c3n2)CC1` (stereo not shown) [ATL313, 4-{3-[6-amino-9-(5-cyclopropylcarbamoyl-3,4-dihydroxytetrahydrofuran-2-yl)-9H-purin-2-yl]prop-2-ynyl}piperidine-1-carboxylic acid methyl ester], the Ki [1] is listed as 52 nM, the Ki [2] is listed as 320 nM and the Ki [3] is listed as 0.6 nM. The Ki [4] was greater than 1000 nM, the “effect on Tat-induced neuronal apoptosis” value [5] was “did not result in an increase in cell death” and the IC50 ([6]; Homo sapiens, Monocyte, read-out: approximate IC50 for inhibitory effect on Tat-stimulated TNF release in monocytes) was less than 1 nM. For the same compound, the “effect on Tat-induced monocyte activation (TNF release)” value ([6]; Tat 100 nM, CGS21680 1 μM, ATL313, ATL455 1-4 nM) was “very similar results; also recorded: opposed”.
